From patent US20240246995A1, “PYRIMIDINONE DERIVATIVE AND PREPARATION METHOD THEREFOR, PHARMACEUTICAL COMPOSITION, AND USE” (SHANGHAI SIMR BIOTECHNOLOGY CO., LTD., priority 2021, published 2024)

Biological target: T1, Lipoprotein-Related Phospholipase A2 (Lp-PLA2) in Human Plasma (Homo sapiens, UniProt Q13093)
T1 construct: 40 μL of equally-divided and thawed mixed human plasma is pre-added; from tissue; host or cells: mixed (pooled) human plasma
T1 sequence (Q13093 22-441): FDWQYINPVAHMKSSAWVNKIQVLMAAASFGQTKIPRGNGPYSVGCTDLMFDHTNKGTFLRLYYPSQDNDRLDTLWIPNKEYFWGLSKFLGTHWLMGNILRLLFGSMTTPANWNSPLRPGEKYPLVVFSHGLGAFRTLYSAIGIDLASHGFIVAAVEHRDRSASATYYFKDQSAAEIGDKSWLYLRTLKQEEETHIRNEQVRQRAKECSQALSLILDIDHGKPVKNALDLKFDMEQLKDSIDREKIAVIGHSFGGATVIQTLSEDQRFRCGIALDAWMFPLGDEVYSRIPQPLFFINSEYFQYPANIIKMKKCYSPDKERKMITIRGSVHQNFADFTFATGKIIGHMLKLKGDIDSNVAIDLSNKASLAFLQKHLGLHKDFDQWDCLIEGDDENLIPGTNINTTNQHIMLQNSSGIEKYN
Test: Determination of Lp-PLA2 in human plasma (Thio-PAF assay)
Type: biochemical
Details: mixed human plasma, 2-thio-PAF substrate, 30 minutes pre-incubation at room temperature
Description: Determination of Lipoprotein-Related Phospholipase A2 (Lp-PLA2) in Human Plasma.
Human plasma determination utilizes a thioester analogue of phosphatidylcholine (PAF), where hydrolysis leads to the formation of phospholipids containing free thiol groups. The amount of the thiol groups is continuously determined by reacting with CPM (7-diethylamino-3-(4′-maleimidophenyl)-4-methylcoumarin), which is maleimide with increased fluorescence after Michael addition of the thiol groups. This determination can detect the activity of Lp-PLA2 in human plasma, for example, determined by the specific inhibition of the Lp-PLA2 inhibitors.
Thio-PAF determination, as quenched 75 μL determination, is carried out. A compound source plate is prepared by preparing a 1:3 (volume) series of diluents of each compound in pure DMSO on a 96-well microplate. A Rainin multi-channel pipette is used to transfer 3 μL of a compound on the compound source plate into a 96-well microplate where 57 μL of a determination buffer is pre-added, and the compound on the source plate is diluted by 20 folds. The above determination buffer contains 50 mM HEPES (pH 7.4), 150 mM NaCl, and 1 mM CHAPS. A Rainin multi-channel pipette is used to transfer 1 μL of the compound subjected to 20-fold dilution into a 96-well Greiner 655076 (black) microplate where 40 μL of equally-divided and thawed mixed human plasma is pre-added. The plate is oscillated for 20 seconds in an Elisa plate oscillator to be mixed evenly. After 30 minutes of pre-incubation at the room temperature, a Rainin multi-channel pipette is used to add 10 μL of a substrate solution to a 96-well Greiner 655076 (black) microplate, and the substrate solution contains 2.5 mM 2-thio-PAF [from ethanol mother liquor], 32 μM CPM [from DMSO mother liquor] and 3.2 mM NEM (N-ethylmaleimide) [newly prepared in DMSO for each experiment] in a determination buffer composed of 50 mM HEPES (pH 7.4), 150 mM NaCl, and 1 mM CHAPS. After 2 minutes, 25 μL of a 5% trifluoroacetic acid (TFA) aqueous solution is used for quenching the reaction. The plate is centrifuged at 2000 rpm for 1 minute. A Biotek Synergy H1 (H1MF) Elisa reader is used to read the plate at ex:380/em:485. GraphPad Prism 6.0 and Excel are used for IC50 data, curve, and QC analysis.

IC50 [nM]	Structure (SMILES)
5.1	Cc1c(OCc2ccc(Oc3ccnc(C(F)(F)F)c3)c(F)c2)nc(=O)n2c1N1C[C@@H]3C[C@@]1(CC2)CO3 [Example 59, (7aS,10S)-2-((3-fluoro-4-((2-(trifluoromethyl)pyrid-4-yl)oxy)benzyl)oxy)-1-methyl-6,7,10, 11-tetrahydro-4H, 8H-7a,10-methyl-pyrimidinyl[6′,1′: 2,3]pyrimidinyl [6,1-c][1,4]oxazin-4-one]
12.2	CCc1c(OCc2ccc(Oc3ccnc(C(F)(F)F)c3)c(F)c2)nc(=O)n2c1N1C[C@@H]3C[C@@]1(CC2)CO3 [Example 60, (7aS,10S)-1-ethyl-2-((3-fluoro-4-((2-(trifluoromethyl)pyrid-4-yl)oxy)benzyl)oxy)-6,7,10, 11-tetrahydro-4H, 8H-7a,10-methyl-pyrimidinyl [6′,1′:2,3] pyrimidinyl[6,1-c] [1,4]oxazin-4-one]
7	O=c1nc(OCc2cc(F)c(Oc3ccnc(Cl)c3)c(F)c2)c(F)c2n1CC[C@]13CO[C@H](CN21)C3 [Example 61, (7aS, 10S)-2-((4-((2-chloropyrid-4-yl)oxy)-3,5-difluorobenzyl)oxy)-1-fluoro-6,7,10,11-tetrahydro-4H,8H-7a, 10-methylamino-pyrimidine[6′,1′:2,3] pyrimidine[6,1-c] [1,4]oxazin-4-one]
5.2	COc1c(OCc2ccc(Oc3ccnc(C(F)(F)F)c3)c(F)c2)nc(=O)n2c1N1C[C@@H]3C[C@@]1(CC2)CO3 [Example 62, (7aS,10S)-2-((3-fluoro-4-((2-(trifluoromethyl)pyrid-4-yl)oxy)benzyl)oxy)-1-methoxy-6,7,10, 11-tetrahydro-4H, 8H-7a,10-methyl-pyrimidinyl [6′,1′:2,3] pyrimidinyl[6,1-c] [1,4]oxazin-4-one]
5.5	COc1c(OCc2cc(F)c(Oc3ccnc(OC(F)(F)F)c3)c(F)c2)nc(=O)n2c1N1C[C@@H]3C[C@@]1(CC2)CO3 [Example 63]
5.8	N#Cc1c(OCc2ccc(Oc3ccnc(C(F)(F)F)c3)c(F)c2)nc(=O)n2c1N1CCCC1CC2 (stereo not drawn) [Example 64, 2-((3-fluoro-4-((2-(trifluoromethyl)pyrid-4-yl)oxy)benzyl)oxy)-4-oxo-6,7,7a,8,9,10-hexahydro-4H-pyrimidinyl [1,6-a]pyrrolo [1,2-c]pyrimidine-1-nitrile]
